Patent US12274781B2, “Use of enzyme-modified isoquercitrin” (SAN-EI GEN F.F.I., INC., priority 2015, dated 2025)
Entries after “also recorded” stand apart in the source; their conditions may differ.

How the values were obtained:
saliva secretion in mice = conditions: cited from earlier work
[1] = test system: saliva secretion in healthy persons; experiment: Salivation-promoting effect of aqueous solutions, non-thickened or thickened with xanthan gum (Experimental Examples 1 and 2); assay type: in vivo, human; conditions: for Amount of salivation (standardized with water): average of 3 panelists, water = 1; for Salivation-promoting (saliva secretion-increasing) effect, in words: Experimental Example 1, aqueous solutions, equimolar in terms of rutin, humans; for Enhancement of the salivation-promoting effect by incorporating a thickening polysaccharide (thickening), in words: Experimental Example 2, 150 μM, 0.1 mass % xanthan gum
Experimental: Using 3 healthy persons (males, average age: 31.3 years old) as panelists, the salivation-promoting effect of the test samples prepared above was evaluated. Persons whose circadian variation of saliva secretion is relatively similar were selected as the panelists from candidates.
The evaluation was performed using 15 g of each test sample per test according to the following method. As a blank, a test was performed in the same manner using 15 g of water in place of the test samples.
(i) After 15 g of each sample is placed in the mouth and retained for 5 seconds, the sample is swallowed at one time.
(ii) After 5 seconds, absorbent cotton (37.5 mm×37.5 mm×4 mm) is placed under (the back of) the tongue, and retained for 2 minutes.
(iii) The absorbent cotton is removed from under the tongue, and the weight (g) of the cotton is measured. This weight is compared with the weight of the absorbent cotton before being placed in the mouth to calculate the difference in weight.
The above test was performed using the same test sample twice per panelist, and the average was calculated. Based on the average of each panelist, the average and standard deviation of all of the panelists were calculated.
Table 2 and FIG. 1 show the evaluation results (the average of 3 panelists). The results are shown as numerical values (relative values) standardized by setting the saliva secretion amount obtained by using the blank (water) as 1.
Test substances (enzymatically modified isoquercitrin preparation, αG rutin, and quercetin) were dissolved in drinking water, and adjusted so that the rutin content (molarity) of the structure of each compound was 150 μM (see Table 1). Further, xanthan gum was added to the aqueous solutions, so that the content thereof was 0.1 mass %, thus thickening the solutions. For comparison, xanthan gum-free aqueous solutions (an aqueous enzymatically modified isoquercitrin solution, an aqueous αG rutin solution, an aqueous quercetin solution) at a concentration of 150 μM in terms of rutin were prepared in the same manner as in Experimental Example 1.
The salivation-promoting effect of each test sample prepared above was evaluated in the same manner as in Experimental Example 1 (the panelists were also the same). Table 3 and FIG. 2 show the evaluation results (the average of 3 panelists).

[2] = 75 μM aqueous solution (in terms of rutin or molarity of quercetin), 15 g
[3] = 150 μM aqueous solution (in terms of rutin or molarity of quercetin), 15 g
[4] = 750 μM aqueous solution (in terms of rutin or molarity of quercetin), 15 g
[5] = 3750 μM aqueous solution (in terms of rutin or molarity of quercetin), 15 g
[6] = Non-thickened: 150 μM, xanthan gum-free, viscosity 1 mPa·s
[7] = Thickened: 150 μM with 0.1 mass % xanthan gum, viscosity 20 mPa·s

Row | Compound | Effect on hyposalivation (saliva secretion in mice; model mice having disturbance of salivary secretion created by radiation exposure) | Effect on saliva secretion (saliva secretion in mice; normal mice) | Amount of salivation (standardized with water) [1, 2] | Amount of salivation (standardized with water) [1, 3] | Amount of salivation (standardized with water) [1, 4] | Amount of salivation (standardized with water) [1, 5] | Salivation-promoting (saliva secretion-increasing) effect, in words [1] | Enhancement of the salivation-promoting effect by incorporating a thickening polysaccharide (thickening), in words [1] | Amount of salivation (standardized with water) [1, 6] | Amount of salivation (standardized with water) [1, 7] | Salivation-promoting (saliva secretion-increasing) effect, in words ([1]; listed as α-glucosylrutin)
1 | O=c1c(O)c(-c2ccc(O)c(O)c2)oc2cc(O)cc(O)c12 [quercetin] | reduces hyposalivation | enhances saliva secretion | 0.989 | 0.826 | 1.032 | 1.132 | not observed; also recorded: no salivation-promoting effect | not observed | 0.826 | 0.868 | –
2 | α-glucosylrutin [αG rutin] | – | – | 0.910 | 0.841 | 0.872 | 0.932 | not observed | not observed | 0.841 | 0.719 | no salivation-promoting effect
